How the values were obtained:
D3 receptor = biological target: T1, D3 receptor (Homo sapiens, UniProt P35462); assay: cAMP content in cells stably expressing D3 receptors (CHO-D3, forskolin, HTRF); format: cell-based
T1 construct: expressed in transfected cells

5-HT2A receptor [1] = biological target: T2, 5-HT2A receptor (Homo sapiens, UniProt P28223); assay: Radioligand binding assay, 5-HT2A receptor ([3H]-Ketanserin); design: purchased PerkinElmer; conditions: Human 5-HT2A Receptor membrane, [3H]-Ketanserin 2 nM; read-out: 5HT-2A Binding IC50
T2 sequence (P28223 whole entry): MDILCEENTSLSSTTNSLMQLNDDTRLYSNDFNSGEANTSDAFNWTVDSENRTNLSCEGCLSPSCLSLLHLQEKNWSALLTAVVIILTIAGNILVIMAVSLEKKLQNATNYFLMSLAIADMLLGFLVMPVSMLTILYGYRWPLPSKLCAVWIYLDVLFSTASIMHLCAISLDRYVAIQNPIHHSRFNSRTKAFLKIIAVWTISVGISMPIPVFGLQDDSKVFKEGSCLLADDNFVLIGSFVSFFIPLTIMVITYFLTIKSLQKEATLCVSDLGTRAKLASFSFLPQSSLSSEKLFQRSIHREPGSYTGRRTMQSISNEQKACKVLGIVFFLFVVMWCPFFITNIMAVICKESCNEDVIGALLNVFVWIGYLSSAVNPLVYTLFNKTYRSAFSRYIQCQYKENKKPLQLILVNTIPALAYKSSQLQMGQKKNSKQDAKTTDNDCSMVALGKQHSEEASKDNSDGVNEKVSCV
Protocol: Determination of the binding ability of the compounds of the
present invention to 5-HT2A receptor
The objective of this test example is to determine the affinity of the compounds for 5-HT2A receptor.
Experimental buffer: 50 mM Tris-HCl pH 7.4, 4 mM CaCl2; washing liquor: 50 mM Tris-HCl pH 7.4, stored at 4°C; 0.5% PEI solution: 0.5 g PEI dissolved in 100 mL ddH2O, 4°C storage of spare.
5 µL of the test compounds (0.005 nM to 100 nM, 10 concentrations in total) and 100 µL of buffer were added to a 96-well assay plate. 1.5 µL of cell membrane and 300 µL of buffer were added to each well, and the plate was shaken at 600 rpm for 5 minutes. 100 µL of a mixed solution of buffer and [^3H]-Ketanserin (final concentration of 2 nM) was added to the reaction system per well, and the plate was shaken at 600 rpm for 5 minutes and incubated at 27°C for 30 min. The […]-96 GF/B filter plate pre-incubated with 0.5% PEI for 1 h was washed twice with the buffer (1 mL/well). The cell membrane suspension was added to the […]-96 GF/B filter plate, washed 4 times, and incubated at 55°C for 10 min. 40 µL of ULTIMA GOLD was added to each well, and liquid scintillation counting was carried out.
(§1) The CPM (Counts per minute) values were determined by TopCount. […] The 10 concentrations of the compound were from 100 nM to 0.005 nM after 3-fold dilution of the reaction system. The percent inhibition rate and ten-point concentration data were fitted to the parametric nonlinear logistic equation by using GraphPad prism to calculate the IC50 values of the compound.

dopamine D3 receptor = biological target: T3, dopamine D3 receptor (Homo sapiens, UniProt P35462); assay: Radioligand binding assay, dopamine D3 receptor ([3H]-methylspiperone); conditions: Human Dopamine D3 Receptor membrane, [3H]-methylspiperone 0.5 nM
T3 construct: purchased PerkinElmer ES-173-M400UA
T3 sequence (P35462 whole entry): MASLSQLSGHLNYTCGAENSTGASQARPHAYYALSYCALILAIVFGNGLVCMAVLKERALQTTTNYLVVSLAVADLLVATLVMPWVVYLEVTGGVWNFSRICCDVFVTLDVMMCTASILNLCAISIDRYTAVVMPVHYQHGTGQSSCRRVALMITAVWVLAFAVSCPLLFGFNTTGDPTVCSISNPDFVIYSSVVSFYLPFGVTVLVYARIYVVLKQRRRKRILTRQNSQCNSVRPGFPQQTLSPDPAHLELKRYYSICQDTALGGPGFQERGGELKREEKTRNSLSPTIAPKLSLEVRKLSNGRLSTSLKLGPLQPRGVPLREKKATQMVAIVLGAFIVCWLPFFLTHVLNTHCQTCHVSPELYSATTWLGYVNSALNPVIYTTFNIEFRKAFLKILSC
Protocol: Determination of the binding ability of the compounds of the present invention to dopamine D3 receptor
The objective of this test example is to determine the affinity of the compounds for dopamine D3 receptor.
Experimental buffer: 50 mM Tris-HCl pH 7.4, 10 mm MgCl2; washing liquor: 50 mM Tris-HCl pH 7.4, stored at 4°C; 0.5% PEI solution: 0.5 g PEI dissolved in 100 mL ddH2O, 4°C storage of spare.
5 µL of the test compounds (0.005 nM to 100 nM, 10 concentrations in total) and 100 µL of buffer were added to a 96-well assay plate. 1 µL of cell membrane and 300 µL of buffer were added to each well, and the plate was shaken at 600 rpm for 5 minutes. 100 µL of a mixed solution of buffer and [^3H]-methylspiperone (final concentration of 0.5 nM) was added to the reaction system per well, and the plate was shaken at 600 rpm for 5 minutes and incubated at 27°C for 30 min. The UNIFII,TER-96 GF/B filter plate pre-incubated with 0.5% PEI for 1 h was washed twice with the buffer (1 mL/well). The cell membrane suspension was added to the […]-96 GF/B filter plate, washed 4 times, and incubated at 55°C for 10 min. 40 µL of ULTIMA GOLD was added to each well, and liquid scintillation counting was carried out.
as §1

5-HT2A receptor [2] = biological target: T2, 5-HT2A receptor; assay: Calcium ion mobility in cells stably expressing 5-HT2A receptors (Flp-In-CHO-5HT2A, FLIPR); format: cell-based; design: expressed in transfected cells; conditions: Flp-In-CHO-5HT2A stable pool, 5HT stimulation
[3] = Crystal form stability study of hydrochloride for 30 days; format: physicochemical; conditions: HPLC peak area normalization
Protocol: The diluent 80% methanol solution was added to prepare a solution containing about 0.5 mg/mL hydrochloride. The mixture was sonicated for 30min to produce a clear solution. 1mL of the soluion was filtered and measured by HPLC. See "2.3.4" for the HPLC analysis method. The content of related substances was calculated according to the peak area normalization method, and the results are shown in Table 32 below. Table 32 HPLC data of hydrochloride in stability experimental conditions for 30 days

[4] = Stability study of salt (light, high temperature, high humidity; 5 and 10 days; HPLC related substances); format: physicochemical
From the text: The chromatographic peak area normalization method was used to calculate the changes of related substances. [table]

[5] = Salt form quantification (HPLC-ELSD); format: physicochemical; conditions: HPLC-ELSD, external standard method
Protocol: The number of acids binding in the salt form was quantified by HPLC-ELSD test. An appropriate amount of NaCl was weighed, and a series of linear solutions of different concentrations with the diluent acetonitrile-water (50:50) was prepared. […] The above linear solution and hydrochloride samples solution was taken to filter. [table]

[6] = Solubility of hydrochloride and free base in different media (37°C, 24 hours, HPLC); format: physicochemical; conditions: for solubility at 24 h: thermodynamic from solid
Protocol: The glass bottle was shaken overnight on an electrothermal constant temperature shaking tank, and the temperature was set to 37°C. After 24 hours, the sample solution was filtered with a 0.45 µm mixed water fiber filter membrane, and the subsequent filtrate was taken to test its content by HPLC. HPLC detection methods are described in "Stability Study Conditions". Table 24 Solubility of hydrochloride and free base in different pH buffers

[7] = Hygroscopicity study of salt (DVS); format: physicochemical; conditions: 25°C, 0-95-0% RH
From the text: The hygroscopicity of a drug refers to the characteristics of the drug's ability or degree of water absorption at a certain temperature and humidity. […] (DVS) was used to characterize the ability of drugs to absorb water under different humidity conditions. The instrument parameters are detailed in the table below. [table]

T1 sequence (P35462 whole entry): as above

Work on `Cc1nc(C(=O)N[C@H]2C[C@H](CCN3CCN(c4cccc(Cl)c4Cl)CC3)C2)co1` [Example 18A, N-(Trans-3-(2-(4-(2,3-dichlorophenyl)piperazin-1-yl)ethyl)cyclobutyl)-2-methyloxazole-4-carboxamide] yielded an EC50 (D3 receptor) of 1.4 nM, an IC50 (5-HT2A receptor [1]) of 1.37 nM and an IC50 (dopamine D3 receptor) of 0.42 nM. The IC50 (5-HT2A receptor [2]) was 6.44 nM.
With `Cl.O=C(N[C@H]1C[C@H](CCN2CCN(c3cccc(Cl)c3Cl)CC2)C1)c1ncco1` [hydrochloride] the “Area% at RRT 1.00” value ([3]; 0d) was 99.44%, the “Area% at RRT 1.07” value ([3]; 0d) was 0.07% and the “Area% at RRT 1.93” value ([3]; 0d) was 0.42%. The “Area% at RRT 2.43” value ([3]; 0d) was 0.07%, the “Area% at RRT 1.00” value ([3]; GS-30d) was 99.43% and the “Area% at RRT 1.07” value ([3]; GS-30d) was 0.11%. For the same compound, the “Area% at RRT 1.93” value ([3]; GS-30d) was 0.39%, the “Area% at RRT 2.43” value ([3]; GS-30d) was 0.07% and the “Area% at RRT 1.00” value ([3]; GW-30d) was 99.51%. For the same compound, the “Area% at RRT 1.07” value ([3]; GW-30d) was 0.08%, the “Area% at RRT 1.93” value ([3]; GW-30d) was 0.41% and the “Area% at RRT 1.00” value ([3]; GZ-30d) was 99.43%. The “Area% at RRT 1.07” value ([3]; GZ-30d) was 0.09%, the “Area% at RRT 1.93” value ([3]; GZ-30d) was 0.41% and the “Area% at RRT 2.43” value ([3]; GZ-30d) was 0.08%. For the same compound, the “Area% at RRT 1.00” value ([3]; WS-30d) was 99.46%, the “Area% at RRT 1.07” value ([3]; WS-30d) was 0.09% and the “Area% at RRT 1.93” value ([3]; WS-30d) was 0.38%. For the same compound, the “Area% at RRT 2.43” value ([3]; WS-30d) was 0.07%, the “stability (growth of impurities)” value [4] was “good stability” and the “Determination of Cl-percentage content in hydrochloride” value ([5]; Batch 1) was 7.82%. For the same compound, the “Determination of Cl-percentage content in hydrochloride” value ([5]; Batch 2) was 7.90%, the “solubility in different pH buffers” value [6] was “pH-dependent, with better solubility under acidic conditions, poor solubility under neutral or alkaline conditions” and the solubility at 24 h ([6]; aqueous buffer, Buffer pH 3) was over 1000 µg/mL. The solubility at 24 h ([6]; aqueous buffer, Buffer pH 4) was over 1000 µg/mL, the solubility at 24 h ([6]; aqueous buffer, Buffer pH 5) was 863 µg/mL and the solubility at 24 h ([6]; aqueous buffer, Buffer pH 6) was 187 µg/mL. The solubility at 24 h ([6]; aqueous buffer, Buffer pH 7) was 14 µg/mL, the solubility at 24 h ([6]; aqueous buffer, Buffer pH 8) was 1 µg/mL and the solubility at 24 h ([6]; fassgf or other biorelevant, FaSSCoF) was over 1000 µg/mL. For the same compound, the solubility at 24 h ([6]; fassgf or other biorelevant, FaSSGF) was 117 µg/mL, the solubility at 24 h ([6]; fassgf or other biorelevant, FeSSCoF) was over 1000 µg/mL and the solubility at 24 h ([6]; simulated gastric fluid, Buffer pH 1) was over 1000 µg/mL. It also gave a solubility at 24 h ([6]; simulated gastric fluid, Buffer pH 2) of over 1000 µg/mL, a solubility at 24 h ([6]; FaSSIF) of over 1000 µg/mL and a solubility at 24 h ([6]; FeSSIF) of over 1000 µg/mL. The “solubility in water compared with free base” value ([6]; water) was “greatly improved”, the solubility at 24 h ([6]; water, H2O) was over 1000 µg/mL and the “hygroscopicity (DVS)” value [7] was “slightly hygroscopic”.
Work on `Cc1cnoc1C(=O)N[C@H]1C[C@H](CCN2CCN(c3cccc(Cl)c3Cl)CC2)C1` [Example 13A, N-(Trans-3-(2-(4-(2,3-dichlorophenyl)piperazin-1-yl)ethyl)cyclobutyl)-4-methylisox azole-5-carboxamide] yielded an EC50 (D3 receptor) of 1.1 nM, an IC50 (5-HT2A receptor [1]) of 1.81 nM and an IC50 (dopamine D3 receptor) of 1.36 nM. It also gave an IC50 (5-HT2A receptor [2]) of 11.7 nM.
`CN(C(=O)NC1CC(CCN2CCN(c3cccc(Cl)c3Cl)CC2)C1)C1CC1` (stereo not shown) [Example 20, 1-Cyclopropyl-3-(3-(2-(4-(2,3-dichlorophenyl)piperazin-1-yl)ethyl)cyclobutyl)-1-me thylurea] showed an EC50 (D3 receptor) of 1 nM, an IC50 (5-HT2A receptor [1]) of 19.1 nM and an IC50 (dopamine D3 receptor) of 1.99 nM. The IC50 (5-HT2A receptor [2]) was 11.6 nM.
`Cc1ncc(C(=O)NC2CC(CCN3CCN(c4cccc(Cl)c4Cl)CC3)C2)o1` (stereo not shown) [Example 16A] showed an EC50 (D3 receptor) of 1.7 nM, an IC50 (5-HT2A receptor [1]) of 1.8 nM and an IC50 (dopamine D3 receptor) of 0.33 nM. It also gave an IC50 (5-HT2A receptor [2]) of 4.28 nM.

Reference: patent publication EP4332093A1, “SALT CONTAINING PIPERAZINE POLYCYCLIC DERIVATIVE, CRYSTAL FORM THEREOF, PREPARATION METHOD THEREFOR, AND USE THEREOF” (Shanghai Hansoh Biomedical Co., Ltd., priority 2021, dated 2022)
